Values joined by “and” are separate entries in the source; they are usually repeats but may differ in a detail not shown here. Equal values may be shown once. Inconclusive results and toxic doses are left out.
Test system: P388 leukemia ip, CD2F1 mice, survival T/C
Test: NCI In Vivo Anticancer Drug Screen. Data for tumor model P388 Leukemia (intraperitoneal) in CD2F1 (CDF1) mice
Conditions: endpoint: median survival time, higher = longer survival
Procedure, shortened: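 Mice carrying the transplanted tumor received test compound or vehicle. Survival was recorded in each group, and the value is the treated-group measurement divided by that of the vehicle-treated control group.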

[1] = dose: 100.0 mg/kg/injection, schedule: Q01DX001 (ip), vehicle: Klucel (hydroxypropylcellulose) (HPC)
[2] = dose: 200.0 mg/kg/injection, schedule: Q01DX001 (ip), vehicle: Klucel (hydroxypropylcellulose) (HPC)
[3] = dose: 400.0 mg/kg/injection, schedule: Q01DX001 (ip), vehicle: Klucel (hydroxypropylcellulose) (HPC)
[4] = dose: 60.0 mg/kg/injection, schedule: Q01DX005 (ip), vehicle: saline with Tween-80
[5] = dose: 60.0 mg/kg/injection, schedule: Q01DX005 (ip), vehicle: Klucel + Tween-80
[6] = dose: 120.0 mg/kg/injection, schedule: Q01DX005 (ip), vehicle: Klucel + Tween-80
[7] = dose: 240.0 mg/kg/injection, schedule: Q01DX005 (ip), vehicle: Klucel + Tween-80
[8] = dose: 50.0 mg/kg/injection, schedule: Q01DX009 (ip), vehicle: Klucel (hydroxypropylcellulose) (HPC)
[9] = dose: 100.0 mg/kg/injection, schedule: Q01DX009 (ip), vehicle: Klucel (hydroxypropylcellulose) (HPC)
[10] = dose: 12.5 mg/kg/injection, schedule: Q01DX005 (ip), vehicle: Klucel (hydroxypropylcellulose) (HPC)
[11] = dose: 25.0 mg/kg/injection, schedule: Q01DX005 (ip), vehicle: Klucel (hydroxypropylcellulose) (HPC)
[12] = dose: 50.0 mg/kg/injection, schedule: Q01DX005 (ip), vehicle: saline with Tween-80
[13] = dose: 100.0 mg/kg/injection, schedule: Q01DX005 (ip), vehicle: saline with Tween-80
[14] = dose: 25.0 mg/kg/injection, schedule: Q01DX009 (ip), vehicle: saline with Tween-80
[15] = dose: 50.0 mg/kg/injection, schedule: Q01DX009 (ip), vehicle: saline with Tween-80
[16] = dose: 100.0 mg/kg/injection, schedule: Q01DX009 (ip), vehicle: saline with Tween-80
[17] = dose: 200.0 mg/kg/injection, schedule: Q01DX009 (ip), vehicle: saline with Tween-80
[18] = dose: 200.0 mg/kg/injection, schedule: Q01DX005 (ip), vehicle: saline with Tween-80
[19] = dose: 100.0 mg/kg/injection, schedule: Q01DX001 (ip), vehicle: saline with Tween-80
[20] = dose: 200.0 mg/kg/injection, schedule: Q01DX001 (ip), vehicle: saline with Tween-80
[21] = dose: 400.0 mg/kg/injection, schedule: Q01DX001 (ip), vehicle: saline with Tween-80

In the case of `O=C1c2cc(F)ccc2OC2CCON12` (centres undefined), the T/C [1] was 97 % of control, the T/C [2] was 97 % of control and the T/C [3] was 103 % of control.

`CCOC(=O)C1(c2ccccc2)c2c(cnc3ccccc23)C(=O)N1C` (centres undefined) was tested, and the T/C [4] was 101 % of control, the T/C (dose: 120.0 mg/kg/injection, schedule: Q01DX005 (ip), vehicle: saline with Tween-80) was 97 % of control and the T/C (dose: 240.0 mg/kg/injection, schedule: Q01DX005 (ip), vehicle: saline with Tween-80) was 97 % of control.

`O=c1[nH]c2cc([N+](=O)[O-])ccc2nc1/C=C(\O)c1ccccc1` was tested, and the T/C [5] was 100 % of control, the T/C [6] was 92 % of control and the T/C [7] was 92 % of control.

`CCOP(O)(=S)OCC.[Ho]` was tested, and the T/C [1] was 91 % of control, the T/C [2] was 88 % of control and the T/C [3] was 90 % of control.

For `C=C1CC(C)(Cl)C(Cl)CC1/C=C/Cl` (centres undefined), the T/C (dose: 1.87 mg/kg/injection, schedule: Q01DX009 (ip), vehicle: saline + alcohol) was 100 % of control, the T/C (dose: 3.75 mg/kg/injection, schedule: Q01DX009 (ip), vehicle: saline + alcohol) was 99 % of control and the T/C (dose: 7.5 mg/kg/injection, schedule: Q01DX009 (ip), vehicle: saline + alcohol) was 103 % of control. The T/C (dose: 15.0 mg/kg/injection, schedule: Q01DX009 (ip), vehicle: saline + alcohol) was 100 % of control.

With `COc1ccc2c(c1OC)C(=O)N1C2=Cc2c(cc3c(c2OC)OCO3)CC1N(C)C` (centres undefined) the T/C (dose: 60.0 mg/kg/injection, schedule: Q01DX005 (ip), vehicle: saline) was 103 % of control and the T/C (dose: 120.0 mg/kg/injection, schedule: Q01DX005 (ip), vehicle: saline) was 100 % of control.

With `CCCCCC(=O)C(=O)c1ccc(O)c(C)c1O` the T/C [8] was 95 % of control and the T/C [9] was 89 % of control.

In the case of `CN1CCC(O)(c2ccc(Br)cc2)C(C(=O)c2ccc(Br)cc2)C1` (centres undefined), the T/C [10] was 100 % of control, the T/C [11] was 100 % of control and the T/C (dose: 50.0 mg/kg/injection, schedule: Q01DX005 (ip), vehicle: Klucel (hydroxypropylcellulose) (HPC)) was 90 % of control and 91 % of control.

`CN(C)C(=S)S/C=C\C(=O)O` was tested, and the T/C (dose: 6.25 mg/kg/injection, schedule: Q04DX003 (ip), vehicle: Klucel (hydroxypropylcellulose) (HPC)) was 97 % of control, the T/C (dose: 12.5 mg/kg/injection, schedule: Q04DX003 (ip), vehicle: Klucel (hydroxypropylcellulose) (HPC)) was 97 % of control and the T/C (dose: 25.0 mg/kg/injection, schedule: Q04DX003 (ip), vehicle: Klucel (hydroxypropylcellulose) (HPC)) was 100 % of control. The T/C (dose: 400.0 mg/kg/injection, schedule: Q04DX003 (ip), vehicle: Klucel (hydroxypropylcellulose) (HPC)) was 88 % of control.

`O=S(=O)(NCc1ccccc1)c1ccccc1` was tested, and the T/C (dose: 12.5 mg/kg/injection, schedule: Q01DX009 (ip), vehicle: Klucel (hydroxypropylcellulose) (HPC)) was 104 % of control, the T/C (dose: 25.0 mg/kg/injection, schedule: Q01DX009 (ip), vehicle: Klucel (hydroxypropylcellulose) (HPC)) was 94 % of control and the T/C [8] was 95 % of control. The T/C [9] was 104 % of control and the T/C (dose: 200.0 mg/kg/injection, schedule: Q01DX009 (ip), vehicle: Klucel (hydroxypropylcellulose) (HPC)) was 106 % of control.

`CC(=O)C[n+]1ccccc1C` was tested, and the T/C [12] was 93 % of control and the T/C [13] was 107 % of control.

With `CC(C)NC(=O)OCc1c(COC(=O)NC(C)C)c(-c2ccc(F)cc2F)n2c1CCC2` the T/C (dose: 3.13 mg/kg/injection, schedule: Q01DX009 (ip), vehicle: distilled water + Tween-80) was 168 % of control, the T/C (dose: 6.25 mg/kg/injection, schedule: Q01DX009 (ip), vehicle: distilled water + Tween-80) was 158 % of control and 162 % of control and the T/C (dose: 12.5 mg/kg/injection, schedule: Q01DX009 (ip), vehicle: distilled water + Tween-80) was 174 % of control and 180 % of control. The T/C (dose: 25.0 mg/kg/injection, schedule: Q01DX009 (ip), vehicle: distilled water + Tween-80) was 99 % of control.

`CN(CC(N)=O)C(=O)N(CCCl)N=O` was tested, and the T/C (dose: 15.0 mg/kg/injection, schedule: Q01DX005 (ip), vehicle: saline with Tween-80) was 160 % of control, the T/C (dose: 30.0 mg/kg/injection, schedule: Q01DX005 (ip), vehicle: saline with Tween-80) was 201 % of control and the T/C [4] was 263 % of control.

For `Cc1cc(OC(=O)Nc2ccc(C(C)C)cc2)c(C)cc1Br`, the T/C (dose: 6.25 mg/kg/injection, schedule: Q01DX009 (ip), vehicle: saline) was 89 % of control, the T/C (dose: 12.5 mg/kg/injection, schedule: Q01DX009 (ip), vehicle: saline) was 92 % of control and the T/C (dose: 25.0 mg/kg/injection, schedule: Q01DX009 (ip), vehicle: saline) was 98 % of control. For the same compound, the T/C (dose: 100.0 mg/kg/injection, schedule: Q01DX009 (ip), vehicle: saline + alcohol) was 98 % of control and the T/C (dose: 200.0 mg/kg/injection, schedule: Q01DX009 (ip), vehicle: saline + alcohol) was 110 % of control.

For `[Br][Pb]([Br])([c]1ccccc1)[c]1ccccc1`, the T/C (dose: 12.5 mg/kg/injection, schedule: Q01DX009 (ip), vehicle: saline with Tween-80) was 104 % of control and 112 % of control, the T/C [14] was 113 % of control (2×) and 114 % of control and the T/C [15] was 107 % of control and 121 % of control. The T/C [16] was 98 % of control.

For `Nc1nc(=O)n(C2CC(O)C(O)C(CO)O2)cc1F` (centres undefined), the T/C [16] was 109 % of control, the T/C [17] was 97 % of control and the T/C (dose: 400.0 mg/kg/injection, schedule: Q01DX009 (ip), vehicle: saline with Tween-80) was 93 % of control.

For `C=CN=NNc1ccccc1`, the T/C (dose: 100.0 mg/kg/injection, schedule: Q04DX003 (ip), vehicle: saline + Tween-80 + alcohol) was 105 % of control, the T/C (dose: 200.0 mg/kg/injection, schedule: Q04DX003 (ip), vehicle: saline + Tween-80 + alcohol) was 106 % of control and the T/C (dose: 400.0 mg/kg/injection, schedule: Q04DX003 (ip), vehicle: saline + Tween-80 + alcohol) was 110 % of control.

With `N=Nc1c(OC(=O)Nc2ccccc2)[nH]c2c(Cl)cc(Cl)cc12` the T/C [12] was 100 % of control, the T/C [13] was 100 % of control and the T/C [18] was 98 % of control.

In the case of `CCCCCCC(=O)CC(SCCO)c1ccc(Cl)c(Cl)c1` (centres undefined), the T/C (dose: 100.0 mg/kg/injection, schedule: Q04DX003 (ip), vehicle: suspension in saline) was 99 % of control, the T/C (dose: 200.0 mg/kg/injection, schedule: Q04DX003 (ip), vehicle: suspension in saline) was 104 % of control and the T/C (dose: 400.0 mg/kg/injection, schedule: Q04DX003 (ip), vehicle: suspension in saline) was 104 % of control.

`COc1ccc(/C=C\C(C)=N\NC(=S)Nc2ccc(Cl)cc2)cc1` was tested, and the T/C [1] was 103 % of control, the T/C [2] was 102 % of control and the T/C [3] was 103 % of control.

For `Cc1ccccc1N=Nc1ccc(N(CCCl)CCCl)cc1`, the T/C (dose: 50.0 mg/kg/injection, schedule: Q01DX001 (ip), vehicle: Klucel (hydroxypropylcellulose) (HPC)) was 100 % of control, the T/C [1] was 115 % of control and the T/C [2] was 100 % of control.

`CCCCCCCCCCN(CCCCCCCCCC)C(C)C(=O)c1ccc2cc(Br)c3ccccc3c2c1` (centres undefined) was tested, and the T/C [12] was 99 % of control, the T/C [13] was 89 % of control and the T/C [18] was 104 % of control.

For `CCOC(=O)CC(N)/C(C)=N\O` (centres undefined), the T/C [5] was 104 % of control, the T/C [6] was 100 % of control and the T/C [7] was 100 % of control.

In the case of `CCN(CC)CCNC(=O)c1cc(Cl)c(C(=O)NO)cc1OC`, the T/C (dose: 6.25 mg/kg/injection, schedule: Q01DX005 (ip), vehicle: Klucel (hydroxypropylcellulose) (HPC)) was 87 % of control, the T/C [10] was 95 % of control and the T/C [11] was 104 % of control.

For `COc1cccc2c1OC1(N3CCOCC3)CCCCC1C2C[N+](=O)[O-]` (centres undefined), the T/C [15] was 90 % of control, the T/C [16] was 93 % of control and the T/C [17] was 89 % of control.

In the case of `O=C1Nc2c(ccc3c2NCCC3)C2CCCC12` (centres undefined), the T/C [19] was 94 % of control, the T/C [20] was 94 % of control and the T/C [21] was 90 % of control.

For `CCOc1c(N2CCOCC2)c(=O)c1=O`, the T/C [19] was 100 % of control, the T/C [20] was 100 % of control and the T/C [21] was 90 % of control.

In the case of `O=P(=O)OP(=O)=O.[O]=[W](=[O])=[O]`, the T/C [14] was 100 % of control, the T/C [15] was 100 % of control and the T/C [16] was 95 % of control.

Reference: PubChem BioAssay AID330 (DTP/NCI, 2004)
